One compound from the supplement of paper PMC11061612 can be followed below.

Each structure is given as a SMILES string.

Experiment in all cases: Bliss excess, mean over the matrix (fraction); higher = more synergy
For test [1], the system named is KM-H2 (Hodgkin's Lymphoma). The method in brief:
(§1)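 Cell lines grown in DMEM/F12 or RPMI with 10% FBS were plated in 1536-well plates and held 24 hours at 37°C, 5% CO2 before 72 hours of exposure to two-drug dose matrices, with DMSO typically at 0.2%. CellTiter-Glo 2.0 luminescence gave viability, which was converted to inhibition. Vehicle wells were set to 0 and blank wells to 1. Combination Emax is the second-highest inhibition in the matrix, and Bliss excess is the observed combination effect minus the expected EA + EB − EA·EB, where EA and EB are the single-agent effects.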

Test [2] has as its system SW756 (Cervical Carcinoma). The essentials:
as §1

Test [3] relates to SW780 (Bladder Carcinoma). The essentials:
as §1

In test [4] the test system is TGBC24TKB (Biliary Tract Carcinoma). The method in brief:
as §1

For a further test, the system named is RH-1 (Ewing's Sarcoma). The method in brief:
as §1

Test [5] concerns SUIT-2 (Pancreatic Carcinoma). The essentials: as §1

Regarding `CS(=O)(=O)CCNCc1ccc(-c2ccc3ncnc(Nc4ccc(OCc5cccc(F)c5)c(Cl)c4)c3c2)o1` [Lapatinib] + NC1(c2ccc(-c3nc4ccn5c(=O)[nH]nc5c4cc3-c3ccccc3)cc2)CCC1 [MK-2206] (first compound max 10 µM, 7x7, partner max 10 µM), the Bliss excess is 0.0116 in test [1]; -0.0506 in test [2]; -0.0054 in test [3]; 0.0667 in test [4]; -0.0202 with RH-1 (Ewing's Sarcoma); -0.0219 in test [5].
